The results in this text go back to ChEMBL document CHEMBL1122577, “Cardiac glycosides. 1. A systematic study of digitoxigenin D-glycosides” (J Med Chem, 1984).

A short description of the experiment: Inhibitory activity against Hog kidney Na+, K+ -Dependent ATPase. The conditions noted are these: read-out: I50. Further details: species or system Sus scrofa.

With `C[C@@H]1O[C@@H](O[C@H]2CC[C@@]3(C)[C@@H](CC[C@@H]4[C@@H]3CC[C@]3(C)[C@@H](C5=CC(=O)OC5)CC[C@@]43O)C2)C[C@@H]2OC(C)(C)O[C@H]12`, the IC50 was 41.8 nM. For the compound `C[C@]12CC[C@H](O[C@H]3C[C@H](O)[C@H](O)[C@H](CO)O3)C[C@@H]1CC[C@@H]1[C@@H]2CC[C@]2(C)[C@@H](C3=CC(=O)OC3)CC[C@@]12O`, the IC50 is 10.7 nM. Next, `C[C@]12CC[C@H](O[C@@H]3C[C@H](O)[C@H](O)[C@H](CO)O3)C[C@@H]1CC[C@@H]1[C@@H]2CC[C@]2(C)[C@@H](C3=CC(=O)OC3)CC[C@@]12O`: 93.3 nM; `C[C@]12CC[C@H](O[C@@H]3O[C@@H](CO)[C@H](O)[C@H](O)[C@@H]3O)CC1CC[C@@H]1[C@@H]2CC[C@]2(C)[C@@H](C3=CC(=O)OC3)CC[C@@]12O` (stereo partly drawn): 64.5 nM. Turning to `C[C@]12CC[C@H](O)C[C@H]1CC[C@@H]1[C@@H]2CC[C@]2(C)[C@@H](C3=CC(=O)OC3)CC[C@]12O` [DIGITOXIGENIN], the IC50 is 117 nM. As for `C[C@]12CC[C@H](O[C@@H]3O[C@@H](CO)[C@@H](O)[C@H](O)[C@@H]3O)CC1CC[C@@H]1[C@@H]2CC[C@]2(C)[C@@H](C3=CC(=O)OC3)CC[C@@]12O` (stereo partly drawn), the IC50 came to 11.7 nM. Then `C[C@]12CC[C@H](O[C@@H]3C[C@@H](O)[C@H](O)[C@H](CO)O3)C[C@@H]1CC[C@@H]1[C@@H]2CC[C@]2(C)[C@@H](C3=CC(=O)OC3)CC[C@@]12O`, with 28.2 nM; and `C[C@@H]1O[C@@H](O[C@H]2CC[C@@]3(C)[C@@H](CC[C@@H]4[C@@H]3CC[C@]3(C)[C@@H](C5=CC(=O)OC5)CC[C@@]43O)C2)C[C@H](O)[C@@H]1O`, with 7.04 nM.
